Measurements from patent US20230364096A1, “USE OF A COMBINATION COMPRISING A BTK INHIBITOR FOR TREATING CANCERS” (BEIGENE SWITZERLAND GMBH, priority 2016, published 2023).

How the values were obtained:
[1] = test system: A431 epidermoid carcinoma allogeneic model (A431 cells and human PBMCs); assay: Human A431 epidermoid carcinoma allogeneic model (Compound 1 and pembrolizumab); format: in vivo, NOD/SCID mice; settings: Compound 1 15 mg/kg p.o. BID; pembrolizumab 10 mg/kg i.p. QW
Protocol: (§1) On the day of implantation, human peripheral blood mononuclear cells (PBMCs) were isolated from 150 mL blood donated by a healthy volunteer. Briefly, peripheral blood was collected into vacuum blood collection tubes containing sodium heparin. PBMCs were separated by density gradient centrifugation using Histopaque-1077 and washed one time by Dulbecco’s Phosphate Buffered Saline (DPBS). The cell pellet was suspended with DPBS at appropriate volume to give a final concentration of 5× 10^7 cells/mL and placed on ice prior to inoculation.
(§2) A431 cells were cultured in DMEM complete medium supplemented with 10% (v/v) fetal bovine serum, and 100 µg/mL of penicillin and streptomycin. On the day of implantation, culture medium was replaced with fresh medium. […]
(§3) Starting from day 0 after cell inoculation, animals were randomly divided into four groups with 10-11 mice per group. […] Treatments were administered in a volume of 10 mL/kg body weight, assessed immediately before dosing and the volume dosed was adjusted accordingly. […] After implantation, primary tumor volume was measured in two dimensions using a calliper.
(§4) Individual body weight was recorded twice weekly, with mice being monitored daily for clinical signs of toxicity for the duration of the study. […]
(§5) Tumor volume was calculated using the formula: V = 0.5 × (a × b^2) where a and b are the long and short diameters of the tumor, respectively.

REC-1 MCL xenograft = assay: Human REC-1 MCL xenograft model; format: in vivo, mice; settings: for Tumor growth inhibition (TGI): Compound 1 7.5 mg/kg p.o. BID, Ibrutinib 25 mg/kg p.o. BID; for tumor growth / anti-tumor effect (in words): Compound 1 7.5 mg/kg BID, Ibrutinib 25 mg/kg BID, rituximab 200 µg/dose i.p. Q4D
Protocol: (§6) REC-1 cells were cultured in RPMI1640 complete medium supplemented with 10% (v/v) fetal bovine serum, and 100 µg/mL of penicillin and streptomycin. On the day of implantation, culture medium was replaced with fresh medium. Four hours later, media was removed and cells were collected as described above. Cells were re-suspended in cold (4° C.) PBS and same volume of matrigel was added to give a final concentration of 5×10^7 cells/mL for REC-1. Re-suspended cells were placed on ice prior to inoculation. The right flank region of each mouse was cleaned with 75% ethanol prior to cell inoculation. Animals were then injected subcutaneously with 1×10^7 REC-1 cells in 200 µl of cell suspension in the right front flank via a 26-gauge needle.
On day 9 after inoculation, animals were randomly divided into 6 groups with 7 mice per group. […] After implantation, primary tumor volume was measured in two dimensions using a calliper.
Individual body weight was recorded twice weekly, with mice being monitored daily for clinical signs of toxicity for the duration of the study. Mice were euthanized using carbon dioxide when their tumor volume reached 2,500 mm^3 after twice measurements, the tumor was ulcerated, or body weight loss exceeded 20%.
(§7) Tumor volume was calculated using the formula: V = 0.5 × (a × b^2) where a and b are the long and short diameters of the tumor, respectively. Tumor growth inhibition (TGI) was calculated using the following formula:
(§8) • treated t = treated tumor volume at time t • placebo t = placebo tumor volume at time t

[2] = test system: A431 epidermoid carcinoma allogeneic model (A431 cells and human PBMCs); assay: Human A431 epidermoid carcinoma allogeneic model (Compound 1 and Mab 1); format: in vivo, NOD/SCID mice; settings: Compound 1 15 mg/kg p.o. BID; Mab 1 10 mg/kg i.p. QW
Protocol: as §1, with “1×10^8” for “5× 10^7”
as §2, §3, §4, §5

[3] = test system: REC-1/NK92MI MCL xenograft; assay: Human REC-1/NK92MI mantle cell lymphoma xenograft model; format: in vivo, NOD/SCID mice; settings: Compound 1 2.5 mg/kg p.o. BID, obinutuzumab 2 mg/kg i.p. QW
Protocol: REC-1 cells were cultured in RPMI1640 complete medium supplemented with 10% (v/v) fetal bovine serum, and 100 µg/mL of penicillin and streptomycin. NK92MI/CD16V cell line, overexpressing CD16 and FcRγ chain, was established from parental cell line NK92MI. The cells were maintained in MEM alpha supplemented with 0.2 mM inositol; 0.1 mM 2-mercaptoethanol; 0.02 mM folic acid; 1×NEAA; adjust to a final concentration of 20% (v/v) fetal bovine serum and 100 µg/mL of penicillin and streptomycin. […]
On day 3 after inoculation, animals were randomly divided into four groups with 12 mice per group. […] Treatments were administered in a volume of 10 mL/kg body weight, assessed immediately before dosing and the volume dosed was adjusted accordingly. […] After implantation, primary tumor volume was measured in two dimensions using a calliper.
as §4
Tumor volume was calculated using the formula: V = 0.5 × (a × b^2) where a and b are the long and short diameters of the tumor, respectively. Tumor growth inhibition (TGI) was calculated using the following formula: […]

TMD-8 DLBCL xenograft = assay: Human TMD-8 DLBCL xenograft model; format: in vivo, mice; settings: for Tumor growth inhibition (TGI): day 46, Compound 1 7.5 mg/kg p.o. BID, obinutuzumab 10 mg/kg i.p. QW
Protocol: as §6, with “TMD-8 DLBCL cells” for “REC-1 cells”, “for TMD-8 cells.” for “for REC-1.”, “1×10^7 TMD-8” for “1×10^7 REC-1”
On day 7 after inoculation, animals were randomly divided into 4 groups with 10 mice per group. […] Treatments were administered in a volume of 10 mL/kg body weight, assessed immediately before dosing and the volume dosed was adjusted accordingly. Compound 1 was administered by oral gavage (p.o.) twice daily (BID) and obinutuzumab was administered by intraperitoneal (i.p.) injection once every week (QW). After implantation, primary tumor volume was measured in two dimensions using a calliper.
Mice were euthanized using carbon dioxide when their tumor volume reached 2,500 mm^3 after twice measurements, the tumor was ulcerated, or body weight loss exceeded 20%.
as §7, §8

[4] = test system: obinutuzumab-induced ADCC (IFN-γ secretion); assay: Obinutuzumab-induced ADCC assessed by IFN-γ secretion in co-culture of NK92MI cells and Mino cells; format: cell-based, human; settings: various concentrations
Protocol: Mino cells were cultured in RPMI1640 complete medium supplemented with 10% (v/v) fetal bovine serum, and 100 µg/mLof penicillin and streptomycin. NK92MI/CD16V cell line, overexpressing CD16 and FcRγ chain, was established from parental cell line NK92MI. The cells were maintained in MEM alpha supplemented with 0.2 mM inositol; 0.1 mM 2-mercaptoethanol; 0.02 mM folic acid; 1 ×NEAA; adjust to a final concentration of 20% (v/v) fetal bovine serum and 100 µg/mL of penicillin and streptomycin.
0130] Mino cells (2×10^4cells/well) as the target cells (T) were plated into 96-well plate in triplicates. Cells were treated with vehicle or various concentrations of BTK inhibitors for one hour, followed by co-seeding with NK92MI cells (4×10^4cells/well, as the effector cells (E)) and co-treatment with vehicle or obinutuzumab (2 ug/well) for additional 24 hrs. After incubation, the cell-free supernatants of each well were collected, and the levels of human IFN-γ were measured using Human IFN-γ ELISA Ready-SET-Go kit.

[5] = number of mice, 10 mice per group, Compound 1 7.5 mg/kg, obinutuzumab 10 mg/kg

Compound	anti-tumor effect on tumor volume (in words) [1]	Tumor growth inhibition (TGI) (REC-1 MCL xenograft) [%]	tumor growth / anti-tumor effect (in words) (REC-1 MCL xenograft)	Tumor growth inhibition (TGI) (TMD-8 DLBCL xenograft) [%]	Objective responses: total (CR+PR) (TMD-8 DLBCL xenograft; [5])	further results
pembrolizumab: humanized monoclonal IgG4 antibody against PD-1 [reference compound]	Neither Compound 1 nor pembrolizumab showed anti-tumor effect					
C=CC(=O)N1CCC[C@@H](n2nc(-c3ccc(Oc4ccccc4)cc3)c3c(N)ncnc32)C1 [Ibrutinib, reference compound]		83				
C=CC(=O)N1CCC([C@@H]2CCNc3c(C(N)=O)c(-c4ccc(Oc5ccccc5)cc4)nn32)CC1 [Compound 1, (S)-7-(1-acryloylpiperidin-4-yl)-2-(4-phenoxyphenyl)-4,5,6,7-tetra-hydropyrazolo[1,5-a]pyrimidine-3-carboxamide]	Neither Compound 1 nor pembrolizumab showed anti-tumor effect	85	tumor growth was retarded	81	5	anti-tumor effect on tumor volume (in words) [2]: no anti-tumor effect; Tumor growth inhibition (TGI) ([3]; day 23): 72%; Objective responses: CR (TMD-8 DLBCL xenograft; [5]): 1; inhibition of IFN-γ secretion (in words) [4]: much less effective
obinutuzumab: anti-CD20 mAb (Gazyva®) [reference compound]				61	2	anti-tumor effect (in words) [3]: no anti-tumor effect; Objective responses: PR (TMD-8 DLBCL xenograft; [5]): 2
rituximab: anti-CD20 mAb [reference compound]			tumor growth was retarded			
